Assay results from patent US20260185163A1, “MEN1 MUTATIONS AND USES THEREOF” (DANA-FARBER CANCER INSTITUTE, INC., priority 2022, published 2026).
Entries after “also recorded” stand apart in the source; their conditions may differ.

Columns and labels:
Assay type in all cases: cell-based, human
[1] = tested on: MOLM13 (MLL::AF9), MV4;11 (MLL::AF4) and OCI-AML3 (NPM1c) cells expressing MEN1-M327I, -G331R and -T349M; test: dose-response assay after lentiviral expression of MEN1 mutants; conditions: viable cells after 10 days of drug treatment
Description: Cell lines were obtained from the “American Type Culture Collection” (ATCC) or the “Deutsche Sammlung von Mikroorganismen und Zellkulturen” (DSMZ) and cultured in RPMI-1640™ (for MOLM13, MV4;11 and OCI-AML3) or DMEM™ (for HEK-293T)+10% fetal bovine serum (FBS)+1% penicillin/streptomycin (P/S) (Life Technologies/Thermo Fisher Scientific) at 37° C., 5% CO2 atmosphere and 95% humidity. Cell lines were tested and maintained mycoplasma negative throughout all experiments. […]
To determine Menin-inhibitor responses of MOLM13, MV4;11 or OCI-AML3 cell lines expressing MEN1 mutants, 3×10^3 cells were plated per well in a non-tissue culture treated 96-well plate. […] After 6 days, cells were split 1:7 and counts of viable cells in each well were determined after 10 d of treatment by flow cytometry (LSRFortessa™ with High-throughput sampler (HTS), BD Biosciences). Relative cell counts were calculated as % of DMSO control. The average of each triplicate was calculated and the mean of all replicates was plotted. […]

[2] = tested on: M327I- and T349M-mutant OCI-AML3 cells; test: dose-response assay, viable cell counts by flow cytometry
Description: (§1) MV4;11 and OCI-AML3 cell lines were passaged 24 h prior to nucleofection. The guide RNA (150 μmol) (sequence: 5′-[…]-3′) was added to Alt-R S.p. HiFi Cas9 nuclease (Integrated DNA Technologies) (125 μmol) followed by an incubation at room temperature (RT) for 20 min to allow formation of ribonucleoprotein (RNP) complexes. 2×10^5 cells were sedimented at 200 g for 10 min at RT, washed with PBS and resuspended in the SG Cell Line Nucleofector™ Solution (Lonza). Cells, Alt-R™ Cas9 Electroporation Enhancer (Lonza) (120 μmol) and the HDR donor oligonucleotide containing the MEN1-M327I mutation as well as a silent mutation at the protospacer adjacent motif (PAM) site (120 μmol) (sequence:5′-[…]-3′) were added to the RNP complex. For wildtype (WT) control, phosphate buffered saline (PBS) (Gibco™, Fisher Scientific) was added to the resuspended cells. Nucleofection was performed using a 16-well 20 μl Nucleocuvette™ stripe (Lonza) in a 4D-Nucleofector™ X Unit (Lonza) (program FF-100). Cells were incubated overnight in RPMI-1640+10% FCS+1% P/S containing 1 μM Alt-R™ HDR enhancer V2 (Lonza) (or DMSO for WT control). The following day, the medium was replaced by RPMI-1640+10% FBS+1% P/S. Single clones were selected in methylcellulose (MethoCult™ M3234, Stemcell™ Technologies) supplemented with 10% RPMI-1640, 10% FBS, 1% P/S and 25 nM SNDX-5613 (or DMSO for WT control), starting 3 days after nucleofection, and expanded in RPMI-1640+10% FCS+1% P/S supplemented with 25 nM SNDX-5613 (or DMSO for WT control). For the in vitro clonal selection assay of bulk nucleofected cells over time, 5×10^3 cells (3 replicates per condition) were seeded in RPMI-1640+10% FBS+1% P/S supplemented with 50 nM SNDX-5613 (or DMSO for WT control) 3 days after nucleofection. Cells were replated in fresh medium+drug every 3 days and viable cells were counted using the LSRFortessa™ (BD Biosciences) flow cytometer. Cumulative cell growth was calculated over 28 days. At each timepoint, cell pellets were frozen and genomic DNA was extracted subsequently using the DNeasy Blood and Tissue Kit™ (QIAGEN). Digital droplet-based PCR was performed from the genomic DNA to assess editing efficiency in the bulk cells over time. To analyze HDR efficiency in single cell clones, genomic DNA was PCR amplified using the Q5 High-Fidelity 2× Master Mix™ (New England BioLabs) and primers (forward: 5′-[…]-3′; reverse: 5′-[…]-3′), and the resulting 641 bp fragment containing the Cas9 cut site was gel-purified using the QIAquick Gel Extraction Kit™ (QIAGEN). Sanger sequencing was used to analyze HDR efficiency (primer 5′-[…]-3′).
(§2) To determine Menin-inhibitor responses of MOLM13, MV4;11 or OCI-AML3 cell lines expressing MEN1 mutants, 3×10^3 cells were plated per well in a non-tissue culture treated 96-well plate. The Menin-inhibitors were titrated on these cells in the following dose-range: DMSO, 3.9 nM, 7.813 nM, 15.625 nM, […], 62.5 nM, 125 nM, 250 nM, 500 nM, 1000 nM. Cells were treated in triplicates on each plate and the experiment was repeated 4 times. After 6 days, cells were split 1:7 and counts of viable cells in each well were determined after 10 d of treatment by flow cytometry (LSRFortessa™ with High-throughput sampler (HTS), BD Biosciences). Relative cell counts were calculated as % of DMSO control. The average of each triplicate was calculated and the mean of all replicates was plotted. Error bars represent the standard error of means (SEM).

[3] = tested on: M327I- and T349M-mutant MV4;11 cells; test: as above
Description: as §1, §2

SMILES	drug sensitivity / resistance phenotype [1]	sensitivity [2]	sensitivity [3]
CCN(C(=O)c1cc(F)ccc1Oc1cncnc1N1CC2(CCN(C[C@H]3CC[C@H](NS(=O)(=O)CC)CC3)CC2)C1)C(C)C [SNDX-5613, revumenib]	robust decrease in SNDX-5613 sensitivity; also recorded: sufficient to establish resistance	reduced sensitivity	reduced sensitivity
CNc1nc(NC2CCN(Cc3ccc4c(cc(C#N)n4CC45CC(NC=O)(C4)C5)c3C)CC2)c2cc(CC(F)(F)F)sc2n1 [MI-3454]	resistance phenotype could similarly be observed	reduced sensitivity	reduced sensitivity
